Patent publication US4341768A, “Antibiotic compounds” (priority 1981, dated 1982)
Bridge positions count the residues as written; N and C are the ends. Square brackets hold non-standard residues; d marks the D form. Peptide text beside a SMILES is read from it. * marks the point of attachment. X1 = CCC(C)CCCCC(O)CC(=O)*; dDab = NCC[C@@H](N)C(=O)O; Dab = NCC[C@H](N)C(=O)O

How the values were obtained:
Acute toxicity in mice = format: in vivo; conditions: for LD50: mouse, in vivo
Protocol: The acute toxicities of Bu-2470 A and B1 were determined in mice by intravenous(iv) and subcutaneous (sc) routes. Colistin was tested comparatively as a reference compound.

| SMILES | Solubility in aqueous lower alcohols, aqueous dioxane, dimethylsulfoxide and dimethylformamide (Solubility; aqueous lower alcohols, aqueous dioxane, dimethylsulfoxide, dimethylformamide) | Solubility in lower alcohols (Solubility; lower alcohols) | Solubility in other organic solvents (Solubility; other organic solvents) | Solubility in water (Solubility; water over a wide pH range) | Acute toxicity relative to colistin (Acute toxicity in mice; iv route) | LD50 (Acute toxicity in mice; intravenous) [mg/kg] | LD50 (Acute toxicity in mice; sc, subcutaneous) [mg/kg] | Acute toxicity relative to colistin (Acute toxicity in mice; sc route) |
| --- | --- | --- | --- | --- | --- | --- | --- | --- |
| CC(C)C[C@@H]1NC(=O)[C@H](CCN)NC(=O)[C@H](CCN)NC(=O)[C@H](CC(C)C)NC(=O)[C@@H](Cc2ccccc2)NC(=O)[C@H](CCN)NC(=O)[C@@H](NC(=O)[C@H](N)CCN)CCNC1=O [Bu-2470A] (H-[dDab][Dab][Dab][dF]L[Dab][Dab]L; lactam 2-C) | readily soluble | slightly soluble | practically insoluble | readily soluble | less toxic than colistin | 35 | 56 | more toxic |
| CCC(C)CCCCC(O)CC(=O)N[C@H](CCN)C(=O)N[C@H]1CCNC(=O)[C@H](CC(C)C)NC(=O)[C@H](CCN)NC(=O)[C@H](CCN)NC(=O)[C@H](CC(C)C)NC(=O)[C@@H](Cc2ccccc2)NC(=O)[C@H](CCN)NC1=O (stereo partly drawn) [Bu-2470B1] (X1-[dDab][Dab][Dab][dF]L[Dab][Dab]L; lactam 2-C) | – | – | – | – | less toxic than colistin | 35 | 280 | less toxic than colistin |
